Data as given in patent US20030186817A1, “SUBSTITUTED 2,4-DIAMINO-1,3,5-TRIAZINES, PROCESSES FOR THEIR PREPARATION AND THEIR USE AS HERBICIDES AND PLANT GROWTH REGULATORS” (priority 1998, published 2003).

Key:
[1] = system: Stellaria media, Amaranthus retroflexus, Sinapis avreuse, Avena fatura, Lolium multiflorum and Setaria viridis; test: Post-emergence action against weeds (greenhouse pot test, visual rating); type: in vivo; conditions: three-leaf stage, application rate of 3.0 kg or less of active substance per hectare, 3 to 4 weeks in greenhouse
Method: Seeds of mono- and dicotyledonous weeds are placed in sandy loam soil in cardboard pots, covered with soil and cultivated in a greenhouse under good growth conditions. Two to three weeks after sowing, the test plants are treated at the three-leaf stage. The novel compounds, formulated as wettable powders or emulsion concentrates, are sprayed in various dosages onto the green parts of the plant at an application rate of from 600 to 8001 of water/ha (converted), and, after the test plants have remained in the greenhouse for 3 to 4 weeks under optimum growth conditions, the action of the preparations is rated visually by comparison with untreated controls. The novel compositions also have good post-emergence herbicidal activity against a broad spectrum of economically important weed grasses and broad-leaved weeds.

[2] = system: Stellaria media, Amaranthus retroflexus, Sinapis avreuse, Avena fatura, Lolium multiflorum and Setaria viridis; test: Pre-emergence action against weeds (greenhouse pot test, visual rating); type: in vivo; conditions: application rate of 3.0 kg or less of active substance per hectare, trial period of 3 to 4 weeks
Description: Seeds of mono- and dicotyledonous weed plants are placed in sandy loam soil in cardboard pots and covered with soil. The novel compounds, formulated as wettable powders or emulsion concentrates, are then applied to the surface of the soil cover in the form of an aqueous suspension or emulsion at an application rate of from 600 to 800 l of water/ha (converted), in various dosages. After the treatment, the pots are placed in a greenhouse and kept under good growth conditions for the weeds. After the test plants have emerged after a trial period of 3 to 4 weeks, the damage to the plants or the negative effect on emergence is rated visually by comparison with untreated controls. As shown by the test results, the novel compounds have good herbicidal pre-emergence activity against a broad spectrum of weed grasses and broad-leaved weeds.

SMILES | herbicidal activity post-emergence (rated visually) [1] | herbicidal activity pre-emergence (damage to the plants or negative effect on emergence, rated visually) [2]
CC(C)c1nc(N)nc(NCCOC(=O)c2ccccc2Cl)n1 [Example 20] | good and in most cases very good herbicidal activity | –
CCC(COC(=O)c1ccc(F)cc1Cl)Nc1nc(N)nc(C(C)C)n1 (stereo not shown) [Example 23] | good and in most cases very good herbicidal activity | –
Cc1ccccc1C(=O)OCCNc1nc(N)nc(C(C)C)n1 [Example 43] | good and in most cases very good herbicidal activity | –
Cc1cc(C)cc(COCC(C)Nc2nc(N)nc(C(C)(C)F)n2)c1 (stereo not shown) [Example 64] | – | good and in most cases very good herbicidal activity
CC(COCc1cccc(Br)c1)Nc1nc(N)nc(C(C)(C)F)n1 (stereo not shown) [Example 76] | – | good and in most cases very good herbicidal activity
CC(COC(=O)c1cccc(C(F)(F)F)c1)Nc1nc(N)nc(C(C)C)n1 (stereo not shown) [Example 78] | good and in most cases very good herbicidal activity | good and in most cases very good herbicidal activity
CC(C)c1nc(N)nc(NCCOC(=O)c2cccc(C(F)(F)F)c2)n1 [Example 80] | good and in most cases very good herbicidal activity | –
CC(COCc1ccc(Cl)cc1)Nc1nc(N)nc(C(C)(C)F)n1 (stereo not shown) [Example 167] | – | good and in most cases very good herbicidal activity
CCCCc1ccc(C(=O)OCC(C)Nc2nc(N)nc(C(C)C)n2)cc1 (stereo not shown) [Example 184] | good and in most cases very good herbicidal activity | –
Cc1cc(C)cc(OCCC(C)Nc2nc(N)nc(C(C)(C)F)n2)c1 (stereo not shown) [Example 282] | – | good and in most cases very good herbicidal activity
CC(CCOc1cc(F)cc(F)c1)Nc1nc(N)nc(C(F)(F)C(F)F)n1 (stereo not shown) [Example 297] | good and in most cases very good herbicidal activity | good and in most cases very good herbicidal activity
CCC(CCOc1cc(F)cc(F)c1)Nc1nc(N)nc(C(C)C)n1 (stereo not shown) [Example 305] | good and in most cases very good herbicidal activity | good and in most cases very good herbicidal activity
Cc1cc(C)cc(OCCC(C)Nc2nc(N)nc(C(F)(F)C(F)F)n2)c1 (stereo not shown) [Example 329] | – | good and in most cases very good herbicidal activity
Cc1cc(C)cc(OCCC(C)Nc2nc(N)nc(C(C)C)n2)c1 (stereo not shown) [Example 339] | – | good and in most cases very good herbicidal activity
CCC(CCCOc1ccccc1)Nc1nc(N)nc(C(C)(C)F)n1 (stereo not shown) [Example 490] | good and in most cases very good herbicidal activity | good and in most cases very good herbicidal activity
CC(CCCOc1ccccc1)Nc1nc(N)nc(C(C)(C)F)n1 (stereo not shown) [Example 501] | good and in most cases very good herbicidal activity | good and in most cases very good herbicidal activity
Cc1cccc(OCCCC(C)Nc2nc(N)nc(C(C)(C)F)n2)c1 (stereo not shown) [Example 502] | good and in most cases very good herbicidal activity | good and in most cases very good herbicidal activity
CCC(CCCOc1ccccc1)Nc1nc(N)nc(C(C)C)n1 (stereo not shown) [Example 510] | good and in most cases very good herbicidal activity | good and in most cases very good herbicidal activity
